Some test systems named below: COLO 205 colon; EKVX NSCLC; HCC-2998 colon; M14 melanoma; OVCAR-3 ovarian; PC-3 prostate; SR leukemia; SW-620 colon; DLD-1 colon.
Test in all cases: NCI anticancer screen, dose series, 48 h

Structures are written as SMILES.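 1) Cells in 96-well plates. 2) Compound, 48 h, 5 concentrations. 3) Linear interpolation between surrounding doses. 4) Unreached endpoint = highest concentration. GI50 marks 50% less growth. TGI: concentration producing complete growth inhibition.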

`C=C(C)[C@@H]1CC[C@]2(COCCCNCCCN)CC[C@]3(C)[C@H](CC[C@@H]4[C@@]5(C)CC[C@H](OCCCN)C(C)(C)[C@@H]5CC[C@]43C)[C@@H]12`: the GI50 in the assay on COLO 205 colon was 0.778 µM; with EKVX NSCLC it was 0.812 µM; in the assay with HCC-2998 colon, 0.96 µM; with M14 melanoma, 0.866 µM; in the assay with OVCAR-3 ovarian, 0.942 µM; with PC-3 prostate it was 0.874 µM. For the same compound, the GI50 in the assay on SR leukemia is 0.577 µM; in the assay on SW-620 colon, 0.871 µM. Moreover, the TGI came to 1.56 µM with COLO 205 colon; 1.61 µM in the assay on EKVX NSCLC; 1.81 µM in the assay on HCC-2998 colon; 1.65 µM in the assay on M14 melanoma; 1.72 µM in the assay with OVCAR-3 ovarian; 1.72 µM with PC-3 prostate. Besides, the values for the TGI in the assay with SR leukemia and in the assay on SW-620 colon were 1.94 µM and 1.67 µM, respectively.
`CCCCCCCN(CCCCCCC)C(=N)c1ccnc2ccccc12`: the GI50 in the assay on COLO 205 colon is 1.58 µM; with EKVX NSCLC, 1.59 µM; in the assay on HCC-2998 colon, 1.42 µM; in the assay on M14 melanoma it was 1.33 µM; in the assay with OVCAR-3 ovarian, 1.45 µM; in the assay on PC-3 prostate it was 1.39 µM. Further, the figures for the GI50 in the assay on SR leukemia and in the assay with SW-620 colon were 1.01 µM and 1.28 µM, respectively. Also, the TGI in the assay with COLO 205 colon was determined as 3.51 µM; with EKVX NSCLC it was 3.15 µM; in the assay with HCC-2998 colon it was 2.77 µM; with M14 melanoma, 2.76 µM; with OVCAR-3 ovarian, 2.84 µM; in the assay with PC-3 prostate, 2.96 µM. In addition, the TGI in the assay with SR leukemia was 2.96 µM; with SW-620 colon it was 2.91 µM.
With `O=C1CSC(c2ccc(-c3nc4ccccc4[nH]3)cc2)=N1`, the GI50 was > 50 µM with COLO 205 colon; > 50 µM in the assay on EKVX NSCLC; 16.3 µM in the assay on HCC-2998 colon; 19.7 µM with M14 melanoma; 33.8 µM in the assay on OVCAR-3 ovarian; > 50 µM in the assay on PC-3 prostate. Further, the GI50 with SR leukemia is 5.7 µM; in the assay with SW-620 colon it was > 50 µM. Also, the TGI with COLO 205 colon, with EKVX NSCLC, in the assay with HCC-2998 colon, in the assay on M14 melanoma, in the assay with OVCAR-3 ovarian and in the assay on PC-3 prostate was > 50 µM throughout. In addition, the TGI in the assay with SR leukemia and in the assay with SW-620 colon was > 50 µM throughout.
On to `CC(CN(C)C)S(=O)(=O)c1ccc(-c2cnc(N)c(C(=O)Nc3ccccc3)n2)cc1` (stereo not given), for which the GI50 was 2.74 µM with COLO 205 colon; 31.1 µM with EKVX NSCLC; 0.973 µM in the assay on HCC-2998 colon; 4.06 µM in the assay with M14 melanoma; 5.83 µM in the assay on OVCAR-3 ovarian; 10.9 µM in the assay on PC-3 prostate. In addition, the values for the GI50 in the assay on SR leukemia and with SW-620 colon were 1.39 µM and 3.84 µM, respectively. Besides, the TGI is 8.56 µM with COLO 205 colon; > 100 µM in the assay with EKVX NSCLC; 16.6 µM in the assay with HCC-2998 colon; 21.9 µM in the assay on M14 melanoma; 32.9 µM in the assay on OVCAR-3 ovarian; > 73.8 µM in the assay with PC-3 prostate. Moreover, the TGI in the assay with SR leukemia came to 8.53 µM; with SW-620 colon it was 19.2 µM.
As to `COc1ccc(C(C#N)=C2C=CC(=NO)C=C2)cc1`, the GI50 in the assay on COLO 205 colon was 15.3 µM; in the assay on EKVX NSCLC, 17.6 µM; in the assay on HCC-2998 colon it was 16.1 µM; in the assay with M14 melanoma it was 6.09 µM; in the assay with OVCAR-3 ovarian, 4.31 µM; in the assay on PC-3 prostate, 3.74 µM. Further, the values for the GI50 with SR leukemia and with SW-620 colon were 3.53 µM and 2.09 µM, respectively. In addition, the TGI came out at 30 µM with COLO 205 colon; 32.7 µM with EKVX NSCLC; 29.7 µM in the assay on HCC-2998 colon; 19.6 µM with M14 melanoma; 13.4 µM in the assay on OVCAR-3 ovarian; 17.1 µM with PC-3 prostate. For the same compound, the TGI in the assay with SR leukemia is > 100 µM; in the assay with SW-620 colon, 4.39 µM.
In the case of `COc1cc(OC)cc(-c2nc3sccn3c2/C=N/N=C(N)N)c1`, the GI50 was 3.11 µM with COLO 205 colon; 8.2 µM in the assay with EKVX NSCLC; 7.55 µM in the assay on HCC-2998 colon; 6.96 µM with M14 melanoma; 5.52 µM in the assay on OVCAR-3 ovarian; 9.23 µM in the assay with PC-3 prostate. For the same compound, the GI50 in the assay on SR leukemia is 8.64 µM; in the assay on SW-620 colon it was 10 µM. The TGI in the assay on COLO 205 colon was found to be 15.8 µM; with EKVX NSCLC it was 15.9 µM; with HCC-2998 colon it was 14.6 µM; with M14 melanoma, 13.4 µM; in the assay on OVCAR-3 ovarian, 12.3 µM; in the assay on PC-3 prostate, 16.2 µM. Besides, the TGI amounted to 16.1 µM in the assay with SR leukemia and 19.1 µM with SW-620 colon.
In the case of `NCCOCn1cc(Cc2cccc(OCc3ccccc3)c2)c(=O)[nH]c1=O`, the TGI in the assay on COLO 205 colon, in the assay on DLD-1 colon, in the assay with EKVX NSCLC, in the assay on HCC-2998 colon, in the assay with M14 melanoma and in the assay on OVCAR-3 ovarian was > 100 µM in each case. In the assay on SW-620 colon, the TGI is > 100 µM.
`O=P(O)(O)OCC1OC(n2cnc3c(NCc4ccco4)ncnc32)C(O)C1O` (stereo not given): the GI50 with COLO 205 colon was 2.12 µM; in the assay on EKVX NSCLC, 2.82 µM; with HCC-2998 colon it was 3.61 µM; in the assay with M14 melanoma it was 3.55 µM; with OVCAR-3 ovarian it was 0.422 µM; in the assay with PC-3 prostate it was 0.927 µM. The GI50 in the assay with SR leukemia was 1.11 µM; in the assay with SW-620 colon, 0.993 µM. Moreover, the TGI in the assay with COLO 205 colon was 9.88 µM; in the assay with EKVX NSCLC, > 41 µM; with HCC-2998 colon, > 30.2 µM; with M14 melanoma, > 41 µM; in the assay on OVCAR-3 ovarian, 1.65 µM; with PC-3 prostate, 12.3 µM. Also, the TGI was 3.93 µM in the assay with SR leukemia and > 44.3 µM in the assay with SW-620 colon.
As for `O=C1Nc2ccccc2/C1=C\c1cccc(/C=C2/C(=O)Nc3ccccc32)n1`, the GI50 is 0.356 µM with COLO 205 colon; 0.692 µM in the assay on EKVX NSCLC; 0.615 µM with HCC-2998 colon; 0.484 µM with M14 melanoma; 0.254 µM in the assay on OVCAR-3 ovarian; 0.654 µM in the assay with PC-3 prostate. Besides, the GI50 is 0.231 µM with SR leukemia and 0.162 µM in the assay on SW-620 colon. In addition, the TGI in the assay on COLO 205 colon worked out at 1.57 µM; with EKVX NSCLC, 8.74 µM; with HCC-2998 colon it was 1.77 µM; in the assay on M14 melanoma, 2.11 µM; with OVCAR-3 ovarian, 0.683 µM; with PC-3 prostate, 3.31 µM. For the same compound, the TGI with SR leukemia amounted to 4.88 µM; with SW-620 colon it was 0.329 µM.

The record behind these values is PubChem BioAssay (NCI).
